Results from patent EP3441076A1, “PHARMACEUTICAL PRODUCT FOR TREATING TUMOR AND COMBINED IMMUNE DEFECT, AND PREPARATION AND APPLICATION THEREOF” (Beijing Lu De Kai Qi Co., Ltd., priority 2016, dated 2017).
Where two headings read alike, the source gives them in different places. Marks after values point to notes of the source that are not given here.

What was measured:
[1] = test system: polychromatic erythrocytes in bone marrow of mice; conditions: for Number of micronucleus (in Ge) / Micronucleus rate: 50 mg/kg•bw, positive control; for Number of micronucleus (in Ge): 5000 cells examined; for Micronucleus rate: P<0.01 vs negative control
Procedure: The walnut extract, the wormwood extract, and the clove bud extract were respectively subjected to a water bath at 70°C for 1 hour, soaked for 12 hours, and concentrated for testing.
(§1) The healthy Kunming mice provided by the Experimental Animal Center of the National Institute for the Control of Pharmaceutical and Biological Products were selected.
The test was carried out via oral gavage and the administration was performed twice at intervals of 24 hrs. 50 mice weighing 25-30 g were randomly divided into 5 groups according to body weight, 10 in each group, half male and half female. […] The doses of the anti-tumor pharmaceutical product for combined immunization according to the present invention were 1.25, 2.50, and 5.00 g/kg•bw, respectively, and the desired concentrations were adjusted with distilled water. The animals were sacrificed by cervical dislocation six hours after the last administration of the anti-tumor pharmaceutical product for combined immunization according to the present invention. The bone marrow of sternum was acquired and diluted with calf serum, smeared, fixed with methanol, and stained with Giemsa. Under the light microscope, 1000 polychromatic erythrocytes (PRC) were counted per animal, and the incidence of micronucleus was calculated by the permillage of micronucleus-containing PRC and statistically processed.

[2] = test system: sperm
Procedure: Test materials: The walnut extract, the wormwood extract, and the clove bud extract were all prepared in the same manner as in Example 1. The walnut extract, the wormwood extract, and the clove bud extract were respectively subjected to a water bath at 70°C for 1 hour, soaked for 12 hours, and concentrated for testing.
as §1
Fifty sexually mature male mice weighing 30-35 g were randomly divided into 5 groups. […] The doses of the anti-tumor pharmaceutical product for combined immunization according to the present invention were 1.25, 2.50, and 5.00 g/kg•bw, and the desired concentration were adjusted with distilled water. The mice were administered via oral gavage once a day for 5 days, and the animals were sacrificed 30 days after the last gavage. The epididymis was acquired and sectioned and stained with eosin. Five animals were counted in each group and 1000 intact sperm were counted per animal. The incidence of sperm abnormality (in percentage) was calculated and statistically processed.

[3] = all dose groups, statistical comparison with distilled water group

O=P1(N(CCCl)CCCl)NCCCO1 (centres unmarked) [cp, cyclophosphamide]
Number of micronucleus (in Ge) ([1]; Female mice): 144 | Micronucleus rate ([1]; Female mice): 28.8* ‰ | Number of micronucleus (in Ge) ([1]; Male mice): 164 | Micronucleus rate ([1]; Male mice): 32.8* ‰ | difference in micronucleus rate from the negative control group [1, 3]: extremely significant | difference in incidence of sperm abnormality from the negative control group [2, 3]: extremely significant | Number of abnormal sperms (in Ge) ([2]; male mice, 40 mg/kg•bw, positive control, 5000 sperms examined): 517 | Rate of sperm abnormality ([2]; male mice, 40 mg/kg•bw, positive control, P<0.01 vs negative control): 10.34* %
